Results reported in ChEMBL document CHEMBL1921676, “Pyrazolone-based anaplastic lymphoma kinase (ALK) inhibitors: control of selectivity by a benzyloxy group” (Bioorg Med Chem Lett, 2011).

What was measured:
[1] = target: ALK tyrosine kinase receptor (Homo sapiens, UniProt Q9UM73); assay: Inhibition of ALK
Insulin receptor = Insulin receptor (Homo sapiens, UniProt P06213); assay: Inhibition of GST-tagged intracellular domain of IR by homogeneous time-resolved fluorescence assay; assay type: single protein
[2] = Half life in mouse liver microsomes
[3] = Half life in dog liver microsomes
[4] = Half life in human liver microsomes
[5] = Half life in rat liver microsomes
[6] = target: T1, Vascular endothelial growth factor receptor 2 (Homo sapiens, UniProt P35968); assay: Inhibition of human cytoplasmic domain of VEGFR-2 by time-resolved fluorescence assay
T1 sequence (P35968 whole entry, the tested form may be a part): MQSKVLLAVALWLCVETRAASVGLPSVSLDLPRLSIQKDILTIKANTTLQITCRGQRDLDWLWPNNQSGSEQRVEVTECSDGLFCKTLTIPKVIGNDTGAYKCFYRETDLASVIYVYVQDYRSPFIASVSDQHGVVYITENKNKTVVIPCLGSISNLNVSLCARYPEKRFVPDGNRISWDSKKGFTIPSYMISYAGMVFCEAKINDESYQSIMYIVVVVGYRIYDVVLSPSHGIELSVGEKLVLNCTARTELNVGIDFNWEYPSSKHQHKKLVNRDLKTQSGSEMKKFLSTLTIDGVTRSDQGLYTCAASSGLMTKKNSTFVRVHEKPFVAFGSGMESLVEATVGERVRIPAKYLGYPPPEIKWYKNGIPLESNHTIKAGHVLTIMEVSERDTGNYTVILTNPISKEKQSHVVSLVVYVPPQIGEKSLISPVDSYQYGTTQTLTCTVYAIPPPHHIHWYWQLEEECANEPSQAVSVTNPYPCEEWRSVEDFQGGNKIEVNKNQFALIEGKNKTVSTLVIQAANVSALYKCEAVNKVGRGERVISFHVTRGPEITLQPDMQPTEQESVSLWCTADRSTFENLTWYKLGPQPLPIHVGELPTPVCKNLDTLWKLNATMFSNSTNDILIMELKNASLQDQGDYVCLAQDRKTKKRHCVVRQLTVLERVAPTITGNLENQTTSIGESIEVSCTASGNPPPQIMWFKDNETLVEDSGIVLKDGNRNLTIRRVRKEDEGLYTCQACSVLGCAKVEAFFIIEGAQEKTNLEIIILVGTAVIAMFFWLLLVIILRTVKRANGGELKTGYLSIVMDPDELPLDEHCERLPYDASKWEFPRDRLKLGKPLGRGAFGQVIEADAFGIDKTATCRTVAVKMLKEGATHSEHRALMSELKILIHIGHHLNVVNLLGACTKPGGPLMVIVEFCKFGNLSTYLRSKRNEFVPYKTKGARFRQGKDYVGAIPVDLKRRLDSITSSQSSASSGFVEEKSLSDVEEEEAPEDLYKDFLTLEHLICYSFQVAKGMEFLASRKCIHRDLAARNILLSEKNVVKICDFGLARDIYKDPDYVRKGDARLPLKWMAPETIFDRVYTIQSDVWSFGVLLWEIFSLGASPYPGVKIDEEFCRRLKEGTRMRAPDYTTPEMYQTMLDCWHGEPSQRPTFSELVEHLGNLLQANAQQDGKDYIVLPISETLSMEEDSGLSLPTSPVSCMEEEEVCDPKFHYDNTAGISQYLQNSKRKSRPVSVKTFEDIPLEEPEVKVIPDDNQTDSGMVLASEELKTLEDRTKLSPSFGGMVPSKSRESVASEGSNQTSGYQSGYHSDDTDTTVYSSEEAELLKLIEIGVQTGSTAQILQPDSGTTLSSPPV

[7] = target: T1, Vascular endothelial growth factor receptor 2; assay: Inhibition of human cytoplasmic domain of VEGFR-2 at 1 uM by time-resolved fluorescence assay
[8] = AUC in rat at 5 mg/kg, po; assay type: ADME, organism-based; set-up: dose 5 mg/kg, route oral; settings: plasma
[9] = Clearance in rat at 1 mg/kg, iv; assay type: ADME, organism-based; set-up: dose 1 mg/kg, route intravenous; settings: in vivo
[10] = AUC in rat at 1 mg/kg, iv; assay type: ADME, organism-based; set-up: dose 1 mg/kg, route intravenous; settings: plasma
[11] = Volume of distribution in rat at 1 mg/kg, iv; assay type: ADME, organism-based; set-up: dose 1 mg/kg, route intravenous; settings: in vivo
[12] = Half life in rat at 1 mg/kg, iv; assay type: ADME, organism-based; set-up: dose 1 mg/kg, route intravenous; settings: in vivo

Chain of ALK tyrosine kinase receptor (Q9UM73 whole entry, the tested form may be a part): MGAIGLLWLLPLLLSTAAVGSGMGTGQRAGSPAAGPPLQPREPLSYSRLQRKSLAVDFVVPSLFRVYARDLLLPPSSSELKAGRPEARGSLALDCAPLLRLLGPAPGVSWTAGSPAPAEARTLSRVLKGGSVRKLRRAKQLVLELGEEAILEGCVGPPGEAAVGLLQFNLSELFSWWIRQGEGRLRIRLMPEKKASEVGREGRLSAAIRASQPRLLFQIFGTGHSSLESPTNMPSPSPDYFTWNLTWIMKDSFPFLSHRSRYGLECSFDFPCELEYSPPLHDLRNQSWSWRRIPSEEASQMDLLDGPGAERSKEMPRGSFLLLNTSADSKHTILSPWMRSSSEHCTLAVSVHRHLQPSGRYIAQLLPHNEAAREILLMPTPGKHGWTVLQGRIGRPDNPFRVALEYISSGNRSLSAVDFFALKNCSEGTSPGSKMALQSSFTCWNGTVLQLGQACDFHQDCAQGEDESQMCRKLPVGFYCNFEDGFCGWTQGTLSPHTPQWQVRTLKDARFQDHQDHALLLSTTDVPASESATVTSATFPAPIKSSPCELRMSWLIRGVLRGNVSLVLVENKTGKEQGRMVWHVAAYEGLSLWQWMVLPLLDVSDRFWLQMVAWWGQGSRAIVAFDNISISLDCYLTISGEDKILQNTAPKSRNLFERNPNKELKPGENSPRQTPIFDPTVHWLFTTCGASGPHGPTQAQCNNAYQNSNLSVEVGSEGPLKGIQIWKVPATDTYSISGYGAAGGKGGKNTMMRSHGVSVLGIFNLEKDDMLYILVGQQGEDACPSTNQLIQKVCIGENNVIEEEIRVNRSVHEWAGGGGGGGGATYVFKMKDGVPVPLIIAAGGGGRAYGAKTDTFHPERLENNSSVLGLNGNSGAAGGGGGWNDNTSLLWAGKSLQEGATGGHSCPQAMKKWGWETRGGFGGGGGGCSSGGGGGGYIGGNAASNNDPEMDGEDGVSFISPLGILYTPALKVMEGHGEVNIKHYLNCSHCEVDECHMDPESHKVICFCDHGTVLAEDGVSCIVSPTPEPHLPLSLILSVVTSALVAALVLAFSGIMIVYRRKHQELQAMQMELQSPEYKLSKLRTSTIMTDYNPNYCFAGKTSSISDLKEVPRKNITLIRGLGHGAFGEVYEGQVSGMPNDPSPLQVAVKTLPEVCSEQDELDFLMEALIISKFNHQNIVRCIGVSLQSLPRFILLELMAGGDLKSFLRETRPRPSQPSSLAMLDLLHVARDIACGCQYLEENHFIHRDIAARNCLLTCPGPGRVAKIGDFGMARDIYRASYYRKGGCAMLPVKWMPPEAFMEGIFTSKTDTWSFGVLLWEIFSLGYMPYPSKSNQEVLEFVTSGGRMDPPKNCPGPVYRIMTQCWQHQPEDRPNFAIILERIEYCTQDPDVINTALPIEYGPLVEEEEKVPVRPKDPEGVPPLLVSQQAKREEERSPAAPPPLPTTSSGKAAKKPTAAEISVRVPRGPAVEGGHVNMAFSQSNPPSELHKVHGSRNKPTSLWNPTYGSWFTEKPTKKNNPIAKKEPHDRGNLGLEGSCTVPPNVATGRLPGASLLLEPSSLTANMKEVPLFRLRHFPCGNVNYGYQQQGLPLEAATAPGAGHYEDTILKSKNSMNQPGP

Work on `Cc1nnsc1C1=NNC(=O)/C1=C\c1cn(C)c2cccc(OCCN(C)C)c12` yielded an IC50 [1] of 291 nM.
`Cn1cc(/C=C2\C(=O)NN=C2c2nccs2)c2c(OCc3ccc(F)cc3F)cccc21` showed an IC50 [1] of 229 nM.
`Cc1nnsc1C1=NNC(=O)/C1=C\c1cn(C)c2cccc(OCc3cccc(F)c3)c12` showed an IC50 (Insulin receptor) of over 10000 nM.
`Cc1nnsc1C1=NNC(=O)/C1=C\c1cn(C)c2cccc(OCc3ccccc3)c12` gave a half-life ([2]; liver microsomes) of over 40 min, a half-life ([3]; liver microsomes) of 29 min and a half-life ([4]; liver microsomes) of 32 min. The half-life ([5]; liver microsomes) was over 40 min, the IC50 [6] was over 300 nM and the IC50 (Insulin receptor) was over 10000 nM.
`CC(Oc1cccc2c1c(/C=C1\C(=O)NN=C1c1nccs1)cn2C)c1ccccc1` (stereo not drawn) showed an IC50 (Insulin receptor) of over 10000 nM.
For `Cc1nnsc1C1=NNC(=O)/C1=C\c1cn(C)c2cccc(OCc3ccc(F)cc3F)c12`, the IC50 (Insulin receptor) was over 10000 nM.
With `CCOc1cccc2c1c(/C=C1\C(=O)NN=C1c1snnc1C)cn2C` the half-life ([2]; microsomes) was 5 min, the half-life ([3]; microsomes) was 5 min and the half-life ([4]; microsomes) was 6 min. For the same compound, the half-life ([5]; microsomes) was 5 min and the IC50 (Insulin receptor) was 998 nM.
`Cn1cc(/C=C2\C(=O)NN=C2c2nccs2)c2c(OCc3ccccc3)cccc21` showed a half-life ([2]; microsomes) of 25 min, an inhibition [7] of 50% and a half-life ([3]; microsomes) of 22 min. For the same compound, the AUC [8] was 13 ng·h/mL, the half-life ([4]; microsomes) was 30 min and the half-life ([5]; microsomes) was 30 min. It also gave a clearance [9] of 19.6 mL/min, an AUC [10] of 972 ng·h/mL and a Vd [11] of 1.2 L/kg. The half-life [12] was 41.4 min and the IC50 (Insulin receptor) was 9120 nM.
`Cn1cc(/C=C2\C(=O)NN=C2c2nc(C(F)(F)F)cs2)c2c(OCc3ccccc3)cccc21` showed an IC50 [1] of 10000 nM.
`Cc1nnsc1C1=NNC(=O)/C1=C\c1cn(C)c2cccc(OCc3c(F)cccc3Cl)c12` gave an IC50 (Insulin receptor) of 720 nM.
Compound `Cc1nnsc1C1=NNC(=O)/C1=C\c1cn(C)c2cccc(OCc3c(F)ccc(F)c3Cl)c12` has an IC50 (Insulin receptor) of 661 nM.
With `Cn1cc(/C=C2\C(=O)NN=C2c2nccs2)c2c(OCc3c(F)cccc3F)cccc21` the half-life ([2]; microsomes) was 6 min, the half-life ([3]; microsomes) was 10 min and the half-life ([4]; microsomes) was 7 min. The half-life ([5]; microsomes) was 6 min and the IC50 (Insulin receptor) was 428 nM.
For `Cc1nnsc1C1=NNC(=O)/C1=C\c1cn(C)c2cccc(OCc3c(F)ccc(Cl)c3F)c12`, the IC50 (Insulin receptor) was 861 nM.
`Cn1cc(/C=C2\C(=O)NN=C2c2nccs2)c2c(OCc3c(F)cccc3Cl)cccc21` showed an IC50 (Insulin receptor) of 1410 nM.
With `Cc1nnsc1C1=NNC(=O)/C1=C\c1cn(C)c2cccc(OCc3ccccn3)c12` the IC50 [1] was 158 nM.
`Cc1nc(COc2cccc3c2c(/C=C2\C(=O)NN=C2c2snnc2C)cn3C)cs1` gave an IC50 [1] of 3000 nM.
In the case of `CN(C)c1nnc(C2=NNC(=O)/C2=C\c2cn(C)c3cccc(OCc4ccccc4)c23)s1`, the IC50 [1] is reported as 4600 nM.
In the case of `Cn1cc(/C=C2\C(=O)NN=C2c2nccs2)c2c(OCc3cccc(F)c3F)cccc21`, the half-life ([2]; liver microsomes) is reported as 8 min, the half-life ([3]; liver microsomes) is reported as 12 min and the half-life ([4]; liver microsomes) is reported as 14 min. It also gave a half-life ([5]; liver microsomes) of 10 min and an IC50 (Insulin receptor) of 6500 nM.
`Cn1cc(/C=C2\C(=O)NN=C2c2nccs2)c2c(OCc3cccc(F)c3)cccc21` gave a half-life ([2]; liver microsomes) of 6 min, an inhibition [7] of 50% and a half-life ([3]; liver microsomes) of 8 min. The half-life ([4]; liver microsomes) was 10 min, the half-life ([5]; liver microsomes) was 8 min and the IC50 (Insulin receptor) was over 1000 nM.
Work on `Cc1nnsc1C1=NNC(=O)/C1=C\c1cn(C)c2cccc(OCc3ccccc3F)c12` yielded an IC50 (Insulin receptor) of over 10000 nM.
`Cc1nnsc1C1=NNC(=O)/C1=C\c1cn(C)c2cccc(OCc3ccc(F)cc3)c12` gave an IC50 (Insulin receptor) of over 10000 nM.
Work on `Cc1nnsc1C1=NNC(=O)/C1=C\c1cn(C)c2cccc(OCc3c(F)cccc3F)c12` yielded an IC50 (Insulin receptor) of over 1000 nM.
Compound `Cn1cc(/C=C2\C(=O)NN=C2c2cccnc2)c2c(OCc3ccccc3)cccc21` has an IC50 [1] of 54 nM.
`Cn1cc(/C=C2\C(=O)NN=C2c2nccs2)c2c(OCc3ccccc3F)cccc21` showed an IC50 (Insulin receptor) of over 10000 nM.
`Cn1cc(/C=C2\C(=O)NN=C2c2nccs2)c2c(OCc3ccc(F)cc3)cccc21` gave an IC50 [1] of 63 nM.
Compound `Cn1cc(/C=C2\C(=O)NN=C2c2cccs2)c2c(OCc3ccccc3)cccc21` has an IC50 [1] of 104 nM.
